Assay: Loading of porous orodispersible film with anthraquinone suspension (coating cycles)
Assay type: physicochemical
Source text: For these tests an anthraquinone suspension (x50=400 nm) was used. These contained, in addition to the anthraquinone, also HPC as stabiliser in a concentration of cHPC=0.25 (in relation to the total quantity of anthraquinone in the suspension). The concentration of the suspension was varied in a range of from 0.05 to 0.2, and the suspension was applied between one and five times to the film. The suspension was applied to the film surface via an application nozzle with a volume of […] at a rate of 220 mm/min. The film used for the tests was a film with cHPC=0.28, as described in Example 1. The loading with anthraquinone was determined for each of the obtained films.

O=C1c2ccccc2C(=O)c2ccccc21 [anthraquinone]
anthraquinone loading (film cHPC=0.28, anthraquinone concentration of 0.2, five coating cycles): 4.9 mg/cm^2
highest loading (film cHPC=0.28, anthraquinone concentration of 0.2, five coating cycles, suspension also contains HPC stabiliser): 6.1 mg/cm^2
maximum active ingredient loading (per standard orodispersible film of 6 cm^2): approximately 30 mg
